Test results taken from PubChem BioAssay (NCI).
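Compound exposure: 48 hours, 5 concentrations, 96-well plates. GI50 = concentration required for 50% inhibition of growth. TGI is the concentration that stops growth completely.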

What was measured:
Experiment in all cases: NCI tumour cell line growth inhibition, 48 h
786-0 renal = test system: 786-0 renal
A549 NSCLC = test system: A549 NSCLC
ACHN renal = test system: ACHN renal
BT-549 breast = test system: BT-549 breast
CAKI-1 renal = test system: CAKI-1 renal
CCRF-CEM leukemia = test system: CCRF-CEM leukemia
COLO 205 colon = test system: COLO 205 colon
DU-145 prostate = test system: DU-145 prostate
EKVX NSCLC = test system: EKVX NSCLC
HCC-2998 colon = test system: HCC-2998 colon
HCT-116 colon = test system: HCT-116 colon
HCT-15 colon = test system: HCT-15 colon
HL-60(TB) leukemia = test system: HL-60(TB) leukemia
HOP-62 NSCLC = test system: HOP-62 NSCLC
HOP-92 NSCLC = test system: HOP-92 NSCLC
HS 578T breast = test system: HS 578T breast
HT29 colon = test system: HT29 colon
IGROV1 ovarian = test system: IGROV1 ovarian
K-562 leukemia = test system: K-562 leukemia
KM12 colon = test system: KM12 colon
LOX IMVI melanoma = test system: LOX IMVI melanoma
M14 melanoma = test system: M14 melanoma
MALME-3M melanoma = test system: MALME-3M melanoma
MCF7 breast = test system: MCF7 breast
MDA-MB-231 breast = test system: MDA-MB-231 breast
MDA-MB-435 = test system: MDA-MB-435
MOLT-4 leukemia = test system: MOLT-4 leukemia
NCI-H226 lung = test system: NCI-H226 lung
NCI-H23 lung = test system: NCI-H23 lung
NCI-H460 lung = test system: NCI-H460 lung
NCI-H522 lung = test system: NCI-H522 lung
NCI/ADR-RES ovarian = test system: NCI/ADR-RES ovarian
OVCAR-3 ovarian = test system: OVCAR-3 ovarian
OVCAR-4 ovarian = test system: OVCAR-4 ovarian
OVCAR-5 ovarian = test system: OVCAR-5 ovarian
OVCAR-8 ovarian = test system: OVCAR-8 ovarian
PC-3 prostate = test system: PC-3 prostate
RPMI-8226 leukemia = test system: RPMI-8226 leukemia
SF-268 CNS = test system: SF-268 CNS
SF-295 CNS = test system: SF-295 CNS
SF-539 CNS = test system: SF-539 CNS
SK-MEL-2 melanoma = test system: SK-MEL-2 melanoma
SK-MEL-28 melanoma = test system: SK-MEL-28 melanoma
SK-MEL-5 melanoma = test system: SK-MEL-5 melanoma
SK-OV-3 ovarian = test system: SK-OV-3 ovarian
SN12C renal = test system: SN12C renal
SNB-19 CNS = test system: SNB-19 CNS
SNB-75 CNS = test system: SNB-75 CNS
SR leukemia = test system: SR leukemia
SW-620 colon = test system: SW-620 colon
T-47D breast = test system: T-47D breast
TK-10 renal = test system: TK-10 renal
U251 CNS = test system: U251 CNS
UACC-62 melanoma = test system: UACC-62 melanoma
UO-31 renal = test system: UO-31 renal

What does the source list for `NS(=O)(=O)NCCNc1nonc1C(=Nc1ccc(F)c(Br)c1)NO`?
GI50 (786-0 renal): 48.8 µM; TGI (786-0 renal): > 100 µM; GI50 (A549 NSCLC): 68.9 µM; TGI (A549 NSCLC): > 100 µM; GI50 (ACHN renal): 31.2 µM; TGI (ACHN renal): > 100 µM; GI50 (BT-549 breast): 40.9 µM; TGI (BT-549 breast): > 100 µM; GI50 (CAKI-1 renal): 33.8 µM; TGI (CAKI-1 renal): > 100 µM; GI50 (CCRF-CEM leukemia): 49.8 µM; TGI (CCRF-CEM leukemia): > 100 µM; GI50 (COLO 205 colon): 47.6 µM; TGI (COLO 205 colon): > 100 µM; GI50 (DU-145 prostate): 51.2 µM; TGI (DU-145 prostate): > 100 µM; GI50 (EKVX NSCLC): 34.8 µM; TGI (EKVX NSCLC): > 100 µM; GI50 (HCC-2998 colon): 27.4 µM; TGI (HCC-2998 colon): 77.5 µM; GI50 (HCT-116 colon): 42.6 µM; TGI (HCT-116 colon): > 100 µM; GI50 (HCT-15 colon): 39.4 µM; TGI (HCT-15 colon): > 100 µM; GI50 (HL-60(TB) leukemia): 36.9 µM; TGI (HL-60(TB) leukemia): > 100 µM; GI50 (HOP-62 NSCLC): > 100 µM; TGI (HOP-62 NSCLC): > 100 µM; GI50 (HOP-92 NSCLC): 23.6 µM; TGI (HOP-92 NSCLC): 86.2 µM; GI50 (HS 578T breast): 30.3 µM; TGI (HS 578T breast): > 100 µM; GI50 (HT29 colon): 66 µM; TGI (HT29 colon): > 100 µM; GI50 (IGROV1 ovarian): 52.3 µM; TGI (IGROV1 ovarian): > 100 µM; GI50 (K-562 leukemia): 35.4 µM; TGI (K-562 leukemia): > 100 µM; GI50 (KM12 colon): 34.8 µM; TGI (KM12 colon): > 100 µM; GI50 (LOX IMVI melanoma): 27.9 µM; TGI (LOX IMVI melanoma): > 100 µM; GI50 (M14 melanoma): 28.1 µM; TGI (M14 melanoma): > 100 µM; GI50 (MALME-3M melanoma): 28.5 µM; TGI (MALME-3M melanoma): > 100 µM; GI50 (MCF7 breast): 32.9 µM; TGI (MCF7 breast): > 100 µM; GI50 (MDA-MB-231 breast): 34 µM; TGI (MDA-MB-231 breast): > 100 µM; GI50 (MDA-MB-435): 32 µM; TGI (MDA-MB-435): > 100 µM; GI50 (MOLT-4 leukemia): 30.8 µM; TGI (MOLT-4 leukemia): > 100 µM; GI50 (NCI-H226 lung): 47.7 µM; TGI (NCI-H226 lung): > 100 µM; GI50 (NCI-H23 lung): 28.9 µM; TGI (NCI-H23 lung): > 100 µM; GI50 (NCI-H460 lung): 35.9 µM; TGI (NCI-H460 lung): > 100 µM; GI50 (NCI-H522 lung): 36.2 µM; TGI (NCI-H522 lung): 97.5 µM; GI50 (NCI/ADR-RES ovarian): > 100 µM; TGI (NCI/ADR-RES ovarian): > 100 µM; GI50 (OVCAR-3 ovarian): 34.6 µM; TGI (OVCAR-3 ovarian): > 100 µM; GI50 (OVCAR-4 ovarian): 32.8 µM; TGI (OVCAR-4 ovarian): > 100 µM; GI50 (OVCAR-5 ovarian): 69.4 µM; TGI (OVCAR-5 ovarian): > 100 µM; GI50 (OVCAR-8 ovarian): 56.5 µM; TGI (OVCAR-8 ovarian): > 100 µM; GI50 (PC-3 prostate): 31.8 µM; TGI (PC-3 prostate): > 100 µM; GI50 (RPMI-8226 leukemia): 37.9 µM; TGI (RPMI-8226 leukemia): > 100 µM; GI50 (SF-268 CNS): 38.8 µM; TGI (SF-268 CNS): > 100 µM; GI50 (SF-295 CNS): 27 µM; TGI (SF-295 CNS): > 100 µM; GI50 (SF-539 CNS): 37.5 µM; TGI (SF-539 CNS): > 100 µM; GI50 (SK-MEL-2 melanoma): 27.8 µM; TGI (SK-MEL-2 melanoma): 97 µM; GI50 (SK-MEL-28 melanoma): 48.3 µM; TGI (SK-MEL-28 melanoma): > 100 µM; GI50 (SK-MEL-5 melanoma): 31.9 µM; TGI (SK-MEL-5 melanoma): > 100 µM; GI50 (SK-OV-3 ovarian): 67.4 µM; TGI (SK-OV-3 ovarian): > 100 µM; GI50 (SN12C renal): 41.3 µM; TGI (SN12C renal): > 100 µM; GI50 (SNB-19 CNS): 48.2 µM; TGI (SNB-19 CNS): > 100 µM; GI50 (SNB-75 CNS): 15.2 µM; TGI (SNB-75 CNS): > 100 µM; GI50 (SR leukemia): 30.2 µM; TGI (SR leukemia): > 100 µM; GI50 (SW-620 colon): 51.1 µM; TGI (SW-620 colon): > 100 µM; GI50 (T-47D breast): 35.1 µM; TGI (T-47D breast): > 100 µM; GI50 (TK-10 renal): 29.8 µM; TGI (TK-10 renal): > 100 µM; GI50 (U251 CNS): 53.1 µM; TGI (U251 CNS): > 100 µM; GI50 (UACC-62 melanoma): 25.9 µM; TGI (UACC-62 melanoma): > 100 µM; GI50 (UO-31 renal): 24.8 µM; TGI (UO-31 renal): > 100 µM
